Source: ChEMBL document CHEMBL5215001, “Diaporisoindole B Reduces Lipid Accumulation in THP-1 Macrophage Cells via MAPKs and PPARγ-LXRα Pathways and Promotes the Reverse Cholesterol Transport by Upregulating SR-B1 and LDLR in HepG2 Cells” (J Nat Prod, 2022)
Active and inactive are the calls of the source.

Assays:
THP-1 [1] = test: Inhibition of ox-LDL induced lipid accumulation in human THP-1 cells assessed as reduction in total triglyceride level at 2.5 to 15 uM; format: functional, cell-based; details: dose 2.5-15 µM
THP-1 [2] = test: Induction of lipid efflux in human THP-1 cells assessed as upregulation of LXRalpha protein expression at higher concentrations by Western blot analysis; format: functional, cell-based
THP-1 [3] = test: Cytotoxicity against human THP-1 cells assessed as inhibition of cell growth at 0 to 15 uM incubated for 24 hrs by CCK-8 assay; format: toxicity, cell-based; details: thp-1, 24 h, dose 0-15 µM
HepG2 [4] = test: Cytotoxicity against human HepG2 cells assessed as inhibition of cell growth at 0 to 15 uM incubated for 24 hrs by CCK-8 assay; format: toxicity, cell-based; details: hepg2, 24 h, dose 0-15 µM
THP-1 [5] = test: Inhibition of ox-LDL uptake in human THP-1 foam cells assessed as downregulation of CD36 expression by measuring reduction in total ERK protein expression at 2.5 to 15 uM by Western blot analysis; format: functional, cell-based; details: dose 2.5-15 µM
HepG2 [6] = test: Reduction in triglyceride level in human HepG2 cells assessed as reduction in ACC mRNA expression by qRT-PCR analysis; format: functional, cell-based; details: dose 2.5-15 µM, DDE = dose-dependent effect
HepG2 [7] = test: Induction of reverse cholesterol transport in human HepG2 cells assessed as increase in SR-B1 protein expression by Western blot analysis; format: functional, cell-based; details: dose 2.5-15 µM, DDE = dose-dependent effect
THP-1 [8] = test: Inhibition of ox-LDL induced lipid accumulation in human THP-1 cells assessed as reduction oxidized LDL uptake at 2.5 to 15 uM incubated for 4 hrs by Hoechst 33258 dye based confocal microscopic analysis; format: functional, cell-based; details: dose 2.5-15 µM
THP-1 [9] = test: Inhibition of ox-LDL uptake in human THP-1 foam cells assessed as downregulation of CD36 expression by measuring reduction in MAPK mRNA expression at 2.5 to 15 uM by qRT-PCR analysis; format: functional, cell-based; details: dose 2.5-15 µM
THP-1 [10] = test: Induction of lipid efflux in human THP-1 cells assessed as upregulation of PPARgamma protein expression at higher concentrations by Western blot analysis; format: functional, cell-based
HepG2 [11] = test: Inhibition of ox-LDL induced lipid accumulation in human HepG2 cells assessed as reduction in total triglyceride level at 2.5 to 15 uM; format: functional, cell-based; details: dose 2.5-15 µM
THP-1 [12] = test: Inhibition of ox-LDL uptake in human THP-1 foam cells assessed as downregulation of CD36 expression by measuring reduction in pERK protein expression at 2.5 to 15 uM by Western blot analysis; format: functional, cell-based; details: dose 2.5-15 µM
HepG2 [13] = test: Induction of reverse cholesterol transport in human HepG2 cells assessed as reduction in PCSK9 mRNA expression at 2.5 to 15 uM by qRT-PCR analysis; format: functional, cell-based; details: dose 2.5-15 µM
THP-1 [14] = test: Inhibition of ox-LDL uptake in human THP-1 foam cells assessed as downregulation of CD36 expression by measuring reduction in total JNK protein expression at 2.5 to 15 uM by Western blot analysis; format: functional, cell-based; details: dose 2.5-15 µM
THP-1 [15] = test: Inhibition of foam cells formation in human THP-1 cells assessed as upregulation of ABCG1 protein expression at 2.5 to 15 uM by Western blot analysis; format: functional, cell-based; details: dose 2.5-15 µM
THP-1 [16] = test: Inhibition of foam cells formation in human THP-1 cells assessed as reduction in CD36 mRNA expression at 2.5 to 15 uM by RT-PCR analysis; format: functional, cell-based; details: dose 2.5-15 µM
HepG2 [17] = test: Reduction in triglyceride level in human HepG2 cells assessed as reduction in FAS mRNA expression by qRT-PCR analysis; format: functional, cell-based; details: dose 2.5-15 µM, DDE = dose-dependent effect
HepG2 [18] = test: Reduction in triglyceride level in human HepG2 cells assessed as reduction in FAS protein expression by Western blot analysis; format: functional, cell-based; details: dose 2.5-15 µM, DDE = dose-dependent effect
THP-1 [19] = test: Inhibition of ox-LDL uptake in human THP-1 foam cells assessed as downregulation of CD36 expression by measuring reduction in pJNK protein expression at 2.5 to 15 uM by Western blot analysis; format: functional, cell-based; details: dose 2.5-15 µM
HepG2 [20] = test: Induction of reverse cholesterol transport in human HepG2 cells assessed as reduction in PCSK9 protein expression at 2.5 to 15 uM by Western blot analysis; format: functional, cell-based; details: dose 2.5-15 µM
THP-1 [21] = test: Inhibition of foam cells formation in human THP-1 cells assessed as upregulation of ABCA1 protein expression at 2.5 to 15 uM by Western blot analysis; format: functional, cell-based; details: dose 2.5-15 µM
THP-1 [22] = test: Inhibition of foam cells formation in human THP-1 cells assessed as reduction in CD36 protein expression at 2.5 to 15 uM by Western blot analysis; format: functional, cell-based; details: dose 2.5-15 µM
THP-1 [23] = test: Induction of lipid efflux in human THP-1 cells assessed as upregulation of PPARgamma mRNA expression by qRT-PCR analysis; format: functional, cell-based; details: dose 2.5-15 µM, DDE = dose-dependent effect
HepG2 [24] = test: Induction of reverse cholesterol transport in human HepG2 cells assessed as upregulation of LDLR protein expression by Western blot analysis; format: functional, cell-based; details: dose 2.5-15 µM, DDE = dose-dependent effect
THP-1 [25] = test: Inhibition of ox-LDL induced lipid accumulation in human THP-1 cells assessed as reduction in intracellular lipid droplets at 2.5 to 15 uM by oil red O staining based inverted microscopic analysis; format: functional, cell-based; details: dose 2.5-15 µM
HepG2 [26] = test: Downregulation of SREBP1c protein expression in human HepG2 cells at 2.5 to 15 uM by Western blot analysis; format: functional, cell-based; details: dose 2.5-15 µM
THP-1 [27] = test: Inhibition of foam cells formation in human THP-1 cells assessed as upregulation of SR-B1 mRNA expression at 2.5 to 15 uM by RT-PCR analysis; format: functional, cell-based; details: dose 2.5-15 µM
HepG2 [28] = test: Downregulation of SREBP2 protein expression in human HepG2 cells at 2.5 to 15 uM by Western blot analysis; format: functional, cell-based; details: dose 2.5-15 µM
HepG2 [29] = test: Downregulation of SREBP2 mRNA expression in human HepG2 cells at 2.5 to 15 uM by qRT-PCR analysis; format: functional, cell-based; details: dose 2.5-15 µM
THP-1 [30] = test: Inhibition of foam cells formation in human THP-1 cells assessed as upregulation of SR-B1 protein expression at 2.5 to 15 uM by Western blot analysis; format: functional, cell-based; details: dose 2.5-15 µM
HepG2 [31] = test: Inhibition of ox-LDL induced lipid accumulation in human HepG2 cells assessed as reduction in total cholesterol level at 2.5 to 15 uM; format: functional, cell-based; details: dose 2.5-15 µM
THP-1 [32] = test: Inhibition of ox-LDL uptake in human THP-1 foam cells assessed as downregulation of CD36 expression by measuring reduction in total p38 protein expression at 2.5 to 15 uM by Western blot analysis; format: functional, cell-based; details: dose 2.5-15 µM
THP-1 [33] = test: Inhibition of foam cells formation in human THP-1 cells assessed as upregulation of ABCA1 mRNA expression at 2.5 to 15 uM by RT-PCR analysis; format: functional, cell-based; details: dose 2.5-15 µM
HepG2 [34] = test: Induction of reverse cholesterol transport in human HepG2 cells assessed as increase in SR-B1 mRNA expression by qRT-PCR analysis; format: functional, cell-based; details: dose 2.5-15 µM, DDE = dose-dependent effect
THP-1 [35] = test: Inhibition of ox-LDL uptake in human THP-1 foam cells assessed as downregulation of CD36 expression by measuring reduction in phosphorylated p38 protein expression at 2.5 to 15 uM by Western blot analysis; format: functional, cell-based; details: dose 2.5-15 µM
THP-1 [36] = test: Inhibition of ox-LDL induced lipid accumulation in human THP-1 cells assessed as increase in cholesterol efflux rate incubated for 24 hrs by liquid scintillation counting analysis; format: functional, cell-based; details: dose 2.5-15 µM, DDE = dose-dependent effect
THP-1 [37] = test: Induction of lipid efflux in human THP-1 cells assessed as upregulation of LXRalpha mRNA expression by qRT-PCR analysis; format: functional, cell-based; details: dose 2.5-15 µM, DDE = dose-dependent effect
HepG2 [38] = test: Downregulation of SREBP1c mRNA expression in human HepG2 cells at 2.5 to 15 uM by qRT-PCR analysis; format: functional, cell-based; details: dose 2.5-15 µM
THP-1 [39] = test: Inhibition of ox-LDL induced lipid accumulation in human THP-1 cells assessed as reduction in total cholesterol level at 2.5 to 15 uM; format: functional, cell-based; details: dose 2.5-15 µM
HepG2 [40] = test: Reduction in cholesterol biosynthesis in human HepG2 cells assessed as reduction in HMGCR mRNA expression at 2.5 to 15 uM by qRT-PCR analysis; format: functional, cell-based; details: dose 2.5-15 µM
HepG2 [41] = test: Reduction in triglyceride level in human HepG2 cells assessed as reduction in ACC protein expression by Western blot analysis; format: functional, cell-based; details: dose 2.5-15 µM, DDE = dose-dependent effect

CC(C)=CCc1ccc(O)c2c1[C@H](c1cc(C)cc3c1O[C@H](C(C)(C)O)CO3)NC2=O
Non-Toxic: Activity (THP-1 [3]) | Activity (HepG2 [4])
active: inhibition (THP-1 [1]) | Activity (THP-1 [2]) | inhibition (THP-1 [5]) | Activity (HepG2 [6]) Dde | Activity (HepG2 [7]) Dde | inhibition (THP-1 [8]) | inhibition (THP-1 [9]) | Activity (THP-1 [10]) | inhibition (HepG2 [11]) | inhibition (THP-1 [12]) | Activity (HepG2 [13]) | inhibition (THP-1 [14]) | inhibition (THP-1 [15]) | inhibition (THP-1 [16]) | Activity (HepG2 [17]) Dde | Activity (HepG2 [18]) Dde | inhibition (THP-1 [19]) | Activity (HepG2 [20]) | inhibition (THP-1 [21]) | inhibition (THP-1 [22]) | Activity (THP-1 [23]) Dde | Activity (HepG2 [24]) Dde | inhibition (THP-1 [25]) | Activity (HepG2 [26]) | inhibition (THP-1 [27]) | Activity (HepG2 [28]) | Activity (HepG2 [29]) | inhibition (THP-1 [30]) | inhibition (HepG2 [31]) | inhibition (THP-1 [32]) | inhibition (THP-1 [33]) | Activity (HepG2 [34]) Dde | inhibition (THP-1 [35]) | inhibition (THP-1 [36]) Dde | Activity (THP-1 [37]) Dde | Activity (HepG2 [38]) | inhibition (THP-1 [39]) | Activity (HepG2 [40]) | Activity (HepG2 [41]) Dde
